Common to all, as to format: cell-based
The test system of assay [1] is fetal hemoglobin (HbF) in GCSF-mobilized human CD34+ cells. The assay can be described thus: HbF Induction Assay. The conditions noted are these: 168 h; compound 1 μM, 7 days, erythroid-differentiated human CD34+ cells, flow cytometry; DMSO baseline 15% HbF positive cells. A digest of the protocol: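 GCSF-mobilized human CD34+ cells were expanded for 7 days with SCF, Flt3-L, IL-3 and EPO, then differentiated with SCF and EPO while dosed at 1 μM (0.1% DMSO), with compound refreshed every 2 days for 7 days. Viability and % HbF-positive cells and MFI were measured by flow cytometry with anti-HbF staining, relative to DMSO controls.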
In general terms: A flow cytometer gives signals particle by particle.

Assay [2] has as its target WIZ (Widely interspaced zinc finger) (Homo sapiens (Human), UniProt O95785+Q96SW2). The assay can be described thus: HUDEP-2 WIZ HiBiT degradation assay. To be noted: HUDEP-2 WIZ HiBiT cells, 24 hours treatment, luminescence; for DC50: read-out: WIZ EC50. The gist of the method:
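HiBiT-tagged WIZ HUDEP-2 cells were seeded at 1.0×10^6 cells/ml in supplemented StemSpan SFEM II with doxycycline and treated 24 h at 37 °C. Remaining tagged protein was read by Nano-Glo HiBiT lytic luminescence. EC50 and Y-min were fitted after DMSO normalization across 10 concentrations, 10 to 0.0005 μM.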
(HiBiT is a short tag that completes a luciferase, so light tracks the accessible tagged protein.)

The target in assay [3] is ZBTB7A (Zinc Finger And BTB Domain Containing 7A) (Homo sapiens (Human), UniProt O95365+Q96SW2). The assay can be described thus: HUDEP-2 ZBTB7A HiBiT degradation assay. To be noted: HUDEP-2 ZBTB7A HiBiT cells, 24 hours treatment, luminescence. A digest of the protocol:
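HUDEP-2 cells carrying HiBiT-tagged ZBTB7A, grown 48 h in IMDM with EPO, SCF, insulin, transferrin, heparin, dox and 5% human plasma, then seeded at 1.0×10^6 cells/ml on pre-dispensed compound (10 concentrations, 10–0.0005 μM) for 24 h at 37 °C. Lytic HiBiT luminescence, DMSO-normalised, gave EC50 and Y-min.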

Molecules are shown by their SMILES.

By EC50 is commonly meant the concentration that produces a half-maximal response. Lower therefore signals higher potency in that assay.

WIZ (Widely interspaced zinc finger), sequence (O95785 whole entry): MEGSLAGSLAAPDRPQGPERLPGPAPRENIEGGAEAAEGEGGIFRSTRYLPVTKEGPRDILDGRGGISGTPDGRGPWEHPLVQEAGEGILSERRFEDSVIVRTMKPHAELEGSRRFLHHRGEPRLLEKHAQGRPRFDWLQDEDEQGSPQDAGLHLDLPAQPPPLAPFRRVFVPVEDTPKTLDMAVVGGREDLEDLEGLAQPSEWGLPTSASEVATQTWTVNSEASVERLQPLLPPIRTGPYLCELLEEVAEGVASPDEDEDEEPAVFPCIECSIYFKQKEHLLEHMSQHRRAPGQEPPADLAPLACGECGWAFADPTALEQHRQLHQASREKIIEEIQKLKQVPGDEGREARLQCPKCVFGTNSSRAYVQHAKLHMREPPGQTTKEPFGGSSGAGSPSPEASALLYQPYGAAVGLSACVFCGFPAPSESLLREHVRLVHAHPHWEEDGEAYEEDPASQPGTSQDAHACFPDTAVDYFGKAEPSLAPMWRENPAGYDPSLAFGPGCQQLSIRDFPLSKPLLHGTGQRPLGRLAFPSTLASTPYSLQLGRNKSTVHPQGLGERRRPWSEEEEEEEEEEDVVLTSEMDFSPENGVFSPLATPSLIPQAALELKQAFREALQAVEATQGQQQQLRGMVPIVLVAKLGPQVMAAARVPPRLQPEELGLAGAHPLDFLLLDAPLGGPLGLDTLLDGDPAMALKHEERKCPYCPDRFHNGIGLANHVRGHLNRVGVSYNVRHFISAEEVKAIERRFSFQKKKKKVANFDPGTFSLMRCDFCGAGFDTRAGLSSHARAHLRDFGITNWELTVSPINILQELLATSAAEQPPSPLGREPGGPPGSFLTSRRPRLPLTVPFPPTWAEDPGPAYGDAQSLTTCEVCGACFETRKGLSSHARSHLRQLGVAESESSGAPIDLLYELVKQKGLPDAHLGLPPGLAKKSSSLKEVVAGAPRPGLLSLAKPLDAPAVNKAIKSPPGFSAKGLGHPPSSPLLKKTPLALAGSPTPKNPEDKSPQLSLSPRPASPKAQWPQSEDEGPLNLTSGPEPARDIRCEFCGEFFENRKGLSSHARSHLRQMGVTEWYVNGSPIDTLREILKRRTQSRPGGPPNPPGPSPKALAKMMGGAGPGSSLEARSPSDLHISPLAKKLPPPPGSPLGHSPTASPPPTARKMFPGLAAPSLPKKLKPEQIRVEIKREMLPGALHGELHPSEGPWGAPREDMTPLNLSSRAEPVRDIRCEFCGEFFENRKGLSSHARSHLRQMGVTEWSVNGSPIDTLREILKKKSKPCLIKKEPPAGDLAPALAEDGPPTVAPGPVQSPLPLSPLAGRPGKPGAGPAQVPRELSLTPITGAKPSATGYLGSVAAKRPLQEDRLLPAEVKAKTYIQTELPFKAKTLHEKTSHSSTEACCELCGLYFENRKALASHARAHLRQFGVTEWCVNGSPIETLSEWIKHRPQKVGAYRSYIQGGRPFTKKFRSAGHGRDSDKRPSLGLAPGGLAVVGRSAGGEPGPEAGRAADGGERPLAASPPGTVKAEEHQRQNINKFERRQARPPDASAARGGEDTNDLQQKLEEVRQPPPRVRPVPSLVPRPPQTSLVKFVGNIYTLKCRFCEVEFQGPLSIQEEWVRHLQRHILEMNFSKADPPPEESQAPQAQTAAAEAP
WIZ (Widely interspaced zinc finger), sequence (Q96SW2 whole entry): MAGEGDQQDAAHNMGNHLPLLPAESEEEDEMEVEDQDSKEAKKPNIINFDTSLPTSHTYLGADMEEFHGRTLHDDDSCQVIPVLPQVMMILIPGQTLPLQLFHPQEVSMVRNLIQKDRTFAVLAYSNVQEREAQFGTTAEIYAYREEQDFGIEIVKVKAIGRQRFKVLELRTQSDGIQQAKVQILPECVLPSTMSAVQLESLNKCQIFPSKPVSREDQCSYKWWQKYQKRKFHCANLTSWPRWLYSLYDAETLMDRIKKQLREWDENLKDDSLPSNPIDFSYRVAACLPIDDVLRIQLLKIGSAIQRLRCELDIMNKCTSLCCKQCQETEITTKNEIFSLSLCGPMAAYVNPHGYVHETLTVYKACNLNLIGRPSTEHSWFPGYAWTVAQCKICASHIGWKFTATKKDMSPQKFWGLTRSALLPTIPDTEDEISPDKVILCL
WIZ (Widely interspaced zinc finger), sequence (Q16531 whole entry partner): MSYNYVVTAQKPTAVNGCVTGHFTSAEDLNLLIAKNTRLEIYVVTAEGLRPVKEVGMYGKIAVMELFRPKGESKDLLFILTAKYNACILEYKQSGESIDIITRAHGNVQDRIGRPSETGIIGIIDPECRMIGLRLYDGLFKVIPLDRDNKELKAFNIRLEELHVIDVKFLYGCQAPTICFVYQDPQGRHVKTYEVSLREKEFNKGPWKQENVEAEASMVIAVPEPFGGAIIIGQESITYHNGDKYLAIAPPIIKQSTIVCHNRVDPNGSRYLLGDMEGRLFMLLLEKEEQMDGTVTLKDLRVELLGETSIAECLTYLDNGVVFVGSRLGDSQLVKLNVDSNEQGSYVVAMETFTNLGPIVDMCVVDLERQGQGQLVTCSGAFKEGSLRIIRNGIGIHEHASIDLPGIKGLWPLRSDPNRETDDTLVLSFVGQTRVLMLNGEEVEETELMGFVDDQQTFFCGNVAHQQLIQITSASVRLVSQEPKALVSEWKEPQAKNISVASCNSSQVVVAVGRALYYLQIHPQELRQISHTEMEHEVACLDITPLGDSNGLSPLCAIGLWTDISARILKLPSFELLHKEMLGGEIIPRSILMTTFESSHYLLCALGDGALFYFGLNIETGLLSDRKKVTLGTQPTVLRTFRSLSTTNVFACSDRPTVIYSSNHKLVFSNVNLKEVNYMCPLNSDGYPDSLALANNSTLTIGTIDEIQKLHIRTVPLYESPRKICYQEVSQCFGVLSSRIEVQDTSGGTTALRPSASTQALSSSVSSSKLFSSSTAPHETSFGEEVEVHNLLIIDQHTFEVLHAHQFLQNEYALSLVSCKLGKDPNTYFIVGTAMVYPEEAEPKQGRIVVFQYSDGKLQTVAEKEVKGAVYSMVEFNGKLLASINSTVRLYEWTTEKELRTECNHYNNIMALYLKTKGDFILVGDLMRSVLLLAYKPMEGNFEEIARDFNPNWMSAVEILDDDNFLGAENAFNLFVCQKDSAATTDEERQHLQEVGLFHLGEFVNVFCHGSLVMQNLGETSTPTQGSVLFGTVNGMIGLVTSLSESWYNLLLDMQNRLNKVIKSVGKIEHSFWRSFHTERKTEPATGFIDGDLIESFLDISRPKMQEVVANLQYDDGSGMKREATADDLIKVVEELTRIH
ZBTB7A (Zinc Finger And BTB Domain Containing 7A), sequence (O95365 whole entry, the tested form may be a part): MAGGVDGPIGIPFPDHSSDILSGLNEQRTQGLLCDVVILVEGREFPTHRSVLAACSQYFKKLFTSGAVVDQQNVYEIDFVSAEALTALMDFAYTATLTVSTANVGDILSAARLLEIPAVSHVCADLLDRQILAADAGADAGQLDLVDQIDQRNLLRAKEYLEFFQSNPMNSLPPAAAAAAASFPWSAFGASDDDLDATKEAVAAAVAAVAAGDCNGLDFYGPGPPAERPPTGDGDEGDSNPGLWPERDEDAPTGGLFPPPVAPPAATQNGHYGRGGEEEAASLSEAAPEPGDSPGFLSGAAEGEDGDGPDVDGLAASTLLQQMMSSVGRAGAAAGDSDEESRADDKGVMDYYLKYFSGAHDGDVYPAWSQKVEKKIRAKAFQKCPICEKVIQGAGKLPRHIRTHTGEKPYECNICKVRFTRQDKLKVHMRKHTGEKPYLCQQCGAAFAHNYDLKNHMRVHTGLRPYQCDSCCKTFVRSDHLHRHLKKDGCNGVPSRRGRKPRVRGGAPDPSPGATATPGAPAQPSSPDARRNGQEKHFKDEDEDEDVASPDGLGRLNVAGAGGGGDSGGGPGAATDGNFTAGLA
ZBTB7A (Zinc Finger And BTB Domain Containing 7A), sequence (Q96SW2 whole entry, the tested form may be a part): as the sequence (Q96SW2 whole entry) above
ZBTB7A (Zinc Finger And BTB Domain Containing 7A), sequence (Q16531 whole entry partner, the tested form may be a part): as the sequence (Q16531 whole entry partner) above

With `Cn1ncc2cc(Nc3cccc4c3C(=O)N(C3CCC(=O)NC3=O)C4=O)c(C3CCOCC3)cc21` (stereo not drawn) [Compound 22, 2-(2,6-dioxopiperidin-3-yl)-4-((1-methyl-6-(tetrahydro-2H-pyran-4-yl)-1H-indazol-5-yl)amino)isoindoline-1,3-dione], the activation at 1 µM in assay [1] lay within 33 to 66%. Further, the DC50 in assay [2] was in the range of 10 to 100 nM. In addition, the EC50 in assay [3] is over 100 nM.

In assay [1], `Cc1nccc(-c2cc3c(cnn3C)cc2Nc2cccc3c2C(=O)N(C2CCC(=O)NC2=O)C3=O)c1C` (stereo not drawn) [Compound 29, 4-((6-(2,3-dimethylpyridin-4-yl)-1-methyl-1H-indazol-5-yl)amino)-2-(2,6-dioxopiperidin-3-yl)isoindoline-1,3-dione] came in with an activation at 1 µM of under 33%. Besides, the DC50 in assay [2] lay in the range of 10 to 100 nM. The compound further returned an EC50 in assay [3] of over 100 nM.

In turn, `COc1cc(-c2ccccc2)c(Nc2cccc3c2C(=O)N(C2CCC(=O)NC2=O)C3=O)cn1` (stereo not drawn) [Compound 30, 2-(2,6-dioxopiperidin-3-yl)-4-((6-methoxy-4-phenylpyridin-3-yl)amino)isoindoline-1,3-dione] displayed an activation at 1 µM in assay [1] of under 33%. Besides, the DC50 fell in the range of 10 to 100 nM in assay [2] and 30 to 100 nM in assay [3] (read-out: ZBTB7A EC50).

The compound `Cc1cc(-c2cc3c(cnn3[C@@H]3CCOC3)cc2Nc2cccc3c2C(=O)N([C@@H]2CCC(=O)NC2=O)C3=O)ccn1` [Compound 52, 2-((R)-2,6-dioxopiperidin-3-yl)-4-((6-(2-methylpyridin-4-yl)-1-((R)-tetrahydrofuran-3-yl)-1H-indazol-5-yl)amino)isoindoline-1,3-dione] gave an activation at 1 µM in assay [1] of 66 to 100%. Besides, the EC50 in assay [2] was under 10 nM; in assay [3], over 100 nM.

In assay [1], `Cc1ncncc1Oc1ccc2c(cnn2C)c1Nc1cccc2c1C(=O)N(C1CCC(=O)NC1=O)C2=O` (stereo not drawn) [Compound 26, 2-(2,6-dioxopiperidin-3-yl)-4-((1-methyl-5-((4-methylpyrimidin-5-yl)oxy)-1H-indazol-4-yl)amino)isoindoline-1,3-dione] showed an activation at 1 µM of under 33%. In addition, the DC50 in assay [2] lay in the range of 10 to 100 nM. This compound also gave a 50% effective concentration (EC50) in assay [3] of over 100 nM.

Take `CN(C)C1CCc2ccc(Nc3cccc4c3C(=O)N([C@@]3(C)CCC(=O)NC3=O)C4=O)cc21` (stereo partly drawn) [Compound 31, 4-((3-(dimethylamino)-2,3-dihydro-1H-inden-5-yl)amino)-2-((S)-3-methyl-2,6-dioxopiperidin-3-yl)isoindoline-1,3-dione]: the activation at 1 µM in assay [1] is 33 to 66%. In addition, the DC50 in assay [2] lay within 10 to 100 nM. The EC50 in assay [3] was over 100 nM.

In turn, `Cc1cc(-c2cc3c(cc2Nc2cccc4c2C(=O)N(C2CCC(=O)NC2=O)C4=O)N(C)C(=O)CC3)cc(C)n1` (stereo not drawn) [Compound 48, 4-((6-(2,6-dimethylpyridin-4-yl)-1-methyl-2-oxo-1,2,3,4-tetrahydroquinolin-7-yl)amino)-2-(2,6-dioxopiperidin-3-yl)isoindoline-1,3-dione] gave an activation at 1 µM in assay [1] of 66 to 100%. Moreover, the EC50 in assay [2] is under 10 nM; in assay [3], under 30 nM.

As to `O=C1CCC(N2C(=O)c3cccc(Nc4cc5cnn(C6CCOCC6)c5cc4C4CC4)c3C2=O)C(=O)N1` (stereo not drawn) [Compound 10, 4-((6-cyclopropyl-1-(tetrahydro-2H-pyran-4-yl)-1H-indazol-5-yl)amino)-2-(2,6-dioxopiperidin-3-yl)isoindoline-1,3-dione], in assay [1], the activation at 1 µM is 66 to 100%. Further, the 50% effective concentration (EC50) was under 10 nM in assay [2] and over 100 nM in assay [3].

Values taken from patent US20240208937A1, “Compounds and Their Use for Treatment of Hemoglobinopathies” (Bristol-Myers Squibb Company, priority 2022, published 2024).
